# Assay results published in PubChem BioAssay (NCI).
#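 Following 48 hours of exposure in 96-well plates, responses at five concentrations were used to interpolate endpoints linearly. TGI denotes the concentration required for complete inhibition of growth.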
# Key:
# Test in all cases: growth of human tumour cells (NCI), 48 h
# RPMI-8226 leukemia = test system: RPMI-8226 leukemia
# HOP-18 NSCLC = test system: HOP-18 NSCLC
# XF 498 CNS = test system: XF 498 CNS
# DU-145 prostate = test system: DU-145 prostate
# MDA-MB-231 breast = test system: MDA-MB-231 breast
# MDA-N = test system: MDA-N
# PC-3 prostate = test system: PC-3 prostate
compound,measurement,setting,value
CCOC(=O)c1ccc(N2C(=O)/C(=C/c3ccc(N(CCC#N)CCC#N)cc3)N=C2c2cc([N+](=O)[O-])ccc2Cl)cc1,TGI,RPMI-8226 leukemia,> 100 µM
same,TGI,HOP-18 NSCLC,> 100 µM
COC1CCC(O)C(CO)O1 (configuration not stated),TGI,XF 498 CNS,> 100 µM
NCC(=O)N[C@H]1c2ccsc2/C(=N/O)[C@H]1O,TGI,DU-145 prostate,> 100 µM
same,TGI,MDA-MB-231 breast,> 100 µM
same,TGI,MDA-N,> 100 µM
same,TGI,PC-3 prostate,> 100 µM
